Results: PubChem BioAssay AID1259407 (Chemical Carcinogenesis Research Information System (CCRIS), 2018)
Active and inactive are the calls of the source. How the calls were made is not given here.

Tested on: CCRIS mutagenicity, Ames/micronucleus/aberration tests
Experiment: CCRIS mutagenicity studies
[1] = Test System: AMES SALMONELLA TYPHIMURIUM, Strain/Indicator: TA98, Metabolic Activation: NONE, Method: STANDARD PLATE
[2] = Test System: AMES SALMONELLA TYPHIMURIUM, Strain/Indicator: TA98, Metabolic Activation: RAT, LIVER, S-9, AROCLOR 1254, Method: STANDARD PLATE
[3] = Test System: AMES SALMONELLA TYPHIMURIUM, Strain/Indicator: TA100, Metabolic Activation: NONE, Method: STANDARD PLATE
[4] = Test System: AMES SALMONELLA TYPHIMURIUM, Strain/Indicator: TA100, Metabolic Activation: RAT, LIVER, S-9, AROCLOR 1254, Method: STANDARD PLATE
[5] = Test System: AMES SALMONELLA TYPHIMURIUM, Strain/Indicator: TA1535, Metabolic Activation: NONE, Method: STANDARD PLATE
[6] = Test System: AMES SALMONELLA TYPHIMURIUM, Strain/Indicator: TA1535, Metabolic Activation: RAT, LIVER, S-9, AROCLOR 1254, Method: STANDARD PLATE
[7] = Test System: AMES SALMONELLA TYPHIMURIUM, Strain/Indicator: TA1537, Metabolic Activation: NONE, Method: STANDARD PLATE
[8] = Test System: AMES SALMONELLA TYPHIMURIUM, Strain/Indicator: TA1537, Metabolic Activation: RAT, LIVER, S-9, AROCLOR 1254, Method: STANDARD PLATE

In the case of C=CC(=O)OCC(C)(C)COC(=O)C=C, the mutagenic call [1] is reported as “inactive; negative”, the mutagenic call [2] is reported as “inactive; negative” and the mutagenic call (Test System: AMES SALMONELLA TYPHIMURIUM, Strain/Indicator: TA98, Metabolic Activation: RAT, LIVER, S-9, SODIUM PHENOBARBITAL, Method: STANDARD PLATE) is reported as “inactive; negative”. For the same compound, the mutagenic call [3] was “inactive; negative”, the mutagenic call [4] was “inactive; negative” and the mutagenic call (Test System: AMES SALMONELLA TYPHIMURIUM, Strain/Indicator: TA100, Metabolic Activation: RAT, LIVER, S-9, SODIUM PHENOBARBITAL, Method: STANDARD PLATE) was “inactive; negative”. The mutagenic call [5] was “inactive; negative”, the mutagenic call [6] was “inactive; negative” and the mutagenic call (Test System: AMES SALMONELLA TYPHIMURIUM, Strain/Indicator: TA1535, Metabolic Activation: RAT, LIVER, S-9, SODIUM PHENOBARBITAL, Method: STANDARD PLATE) was “inactive; negative”. For the same compound, the mutagenic call [7] was “inactive; negative”, the mutagenic call [8] was “inactive; negative” and the mutagenic call (Test System: AMES SALMONELLA TYPHIMURIUM, Strain/Indicator: TA1537, Metabolic Activation: RAT, LIVER, S-9, SODIUM PHENOBARBITAL, Method: STANDARD PLATE) was “inactive; negative”. The mutagenic call (Test System: AMES SALMONELLA TYPHIMURIUM, Strain/Indicator: TA1538, Metabolic Activation: NONE, Method: STANDARD PLATE) was “inactive; negative”, the mutagenic call (Test System: AMES SALMONELLA TYPHIMURIUM, Strain/Indicator: TA1538, Metabolic Activation: RAT, LIVER, S-9, AROCLOR 1254, Method: STANDARD PLATE) was “inactive; negative” and the mutagenic call (Test System: AMES SALMONELLA TYPHIMURIUM, Strain/Indicator: TA1538, Metabolic Activation: RAT, LIVER, S-9, SODIUM PHENOBARBITAL, Method: STANDARD PLATE) was “inactive; negative”.
For O=C(O)c1cc(Br)cc2cccnc12, the mutagenic call [1] was “inactive; negative”, the mutagenic call [2] was “inactive; negative” and the mutagenic call [3] was “inactive; negative”. The mutagenic call [4] was “inactive; negative”, the mutagenic call [5] was “inactive; negative” and the mutagenic call [6] was “inactive; negative”. The mutagenic call [7] was “inactive; negative” and the mutagenic call [8] was “inactive; negative”.
COc1ccc(O)c2c(=O)c3c(OC)cc4c(c3oc12)[C@@H]1C=CO[C@@H]1O4 was tested, and the mutagenic call (Test System: AMES SALMONELLA TYPHIMURIUM, Strain/Indicator: TA98, Metabolic Activation: RAT, LIVER, S-9, PHENOBARBITAL, Method: STANDARD PLATE) was “inactive; negative” and the mutagenic call (Test System: AMES SALMONELLA TYPHIMURIUM, Strain/Indicator: TA100, Metabolic Activation: RAT, LIVER, S-9, PHENOBARBITAL, Method: STANDARD PLATE) was “active; positive”.
For Clc1ccc2ccc3cccc4ccc1c2c34, the mutagenic call [2] was “active; positive” and the mutagenic call [4] was “active; positive”.
COc1ccc2c(c1)-c1nccc3cc(OC)c(O)c(c13)C2=O was tested, and the mutagenic call (Test System: AMES SALMONELLA TYPHIMURIUM, Strain/Indicator: TA98, Metabolic Activation: RAT, LIVER, S-9, PHENOBARBITAL AND BETA-NAPHTHOFLAVONE, Method: PREINCUBATION) was “active; positive”.
For Nc1ccc(Sc2ccc(N)cc2)cc1, the mutagenic call (Test System: AMES SALMONELLA TYPHIMURIUM, Strain/Indicator: TA97, Metabolic Activation: HAMSTER, LIVER, S-9, AROCLOR 1254 (10%), Method: PREINCUBATION) was “active; positive”, the mutagenic call (Test System: AMES SALMONELLA TYPHIMURIUM, Strain/Indicator: TA97, Metabolic Activation: NONE, Method: PREINCUBATION) was “inactive; negative” and the mutagenic call (Test System: AMES SALMONELLA TYPHIMURIUM, Strain/Indicator: TA97, Metabolic Activation: RAT, LIVER, S-9, AROCLOR 1254 (10%), Method: PREINCUBATION) was “active; positive”. For the same compound, the mutagenic call (Test System: AMES SALMONELLA TYPHIMURIUM, Strain/Indicator: TA98, Metabolic Activation: HAMSTER, LIVER, S-9, AROCLOR 1254 (10%), Method: PREINCUBATION) was “active; positive”, the mutagenic call (Test System: AMES SALMONELLA TYPHIMURIUM, Strain/Indicator: TA98, Metabolic Activation: NONE, Method: PREINCUBATION) was “inactive; negative” and the mutagenic call (Test System: AMES SALMONELLA TYPHIMURIUM, Strain/Indicator: TA98, Metabolic Activation: RAT, LIVER, S-9, AROCLOR 1254 (10%), Method: PREINCUBATION) was “active; positive”. The mutagenic call (Test System: AMES SALMONELLA TYPHIMURIUM, Strain/Indicator: TA98, Metabolic Activation: RAT, LIVER, S-9, PCB, Method: PREINCUBATION) was “active; positive”, the mutagenic call (Test System: AMES SALMONELLA TYPHIMURIUM, Strain/Indicator: TA100, Metabolic Activation: HAMSTER, LIVER, S-9, AROCLOR 1254 (10%), Method: PREINCUBATION) was “active; positive” and the mutagenic call (Test System: AMES SALMONELLA TYPHIMURIUM, Strain/Indicator: TA100, Metabolic Activation: NONE, Method: PREINCUBATION) was “active; positive”. For the same compound, the mutagenic call (Test System: AMES SALMONELLA TYPHIMURIUM, Strain/Indicator: TA100, Metabolic Activation: RAT, LIVER, S-9, AROCLOR 1254 (10%), Method: PREINCUBATION) was “active; positive”, the mutagenic call (Test System: AMES SALMONELLA TYPHIMURIUM, Strain/Indicator: TA100, Metabolic Activation: RAT, LIVER, S-9, PCB, Method: PREINCUBATION) was “active; positive” and the mutagenic call (Test System: AMES SALMONELLA TYPHIMURIUM, Strain/Indicator: TA1535, Metabolic Activation: HAMSTER, LIVER, S-9, AROCLOR 1254 (10%), Method: PREINCUBATION) was “inactive; negative”. For the same compound, the mutagenic call (Test System: AMES SALMONELLA TYPHIMURIUM, Strain/Indicator: TA1535, Metabolic Activation: NONE, Method: PREINCUBATION) was “inactive; negative”, the mutagenic call (Test System: AMES SALMONELLA TYPHIMURIUM, Strain/Indicator: TA1535, Metabolic Activation: RAT, LIVER, S-9, AROCLOR 1254 (10%), Method: PREINCUBATION) was “inactive; negative” and the mutagenic call (Test System: AMES SALMONELLA TYPHIMURIUM, Strain/Indicator: TA1537, Metabolic Activation: HAMSTER, LIVER, S-9, AROCLOR 1254 (10%), Method: PREINCUBATION) was “inactive; negative”. The mutagenic call (Test System: AMES SALMONELLA TYPHIMURIUM, Strain/Indicator: TA1537, Metabolic Activation: NONE, Method: PREINCUBATION) was “inactive; negative” and the mutagenic call (Test System: AMES SALMONELLA TYPHIMURIUM, Strain/Indicator: TA1537, Metabolic Activation: RAT, LIVER, S-9, AROCLOR 1254 (10%), Method: PREINCUBATION) was “inactive; negative”.
With CO[C@H](C(=O)[C@@H](O)[C@@H](C)O)[C@@H]1Cc2cc3cc(O[C@H]4C[C@@H](O[C@H]5C[C@@H](O)[C@H](O)[C@@H](C)O5)[C@H](O)[C@@H](C)O4)c(C)c(O)c3c(O)c2C(=O)[C@H]1O[C@H]1C[C@@H](O[C@H]2C[C@@H](O[C@H]3C[C@](C)(O)[C@H](O)[C@@H](C)O3)[C@@H](O)[C@@H](C)O2)[C@H](O)[C@@H](C)O1 the mutagenic call (Test System: CHINESE HAMSTER OVARY, Strain/Indicator: CHO (HGPRT)/6-THIOGUANINE, Metabolic Activation: NONE, Method: PREINCUBATION) was “active; positive”.
